# Assay results published in patent publication US11059815B2, “Synthesis of small molecule histone deacetylase 6 degraders, compounds formed thereby, and pharmaceutical compositions containing them” (Wisconsin Alumni Research Foundation, priority 2018, dated 2021).
# Target: T1, HDAC6 (Mus musculus, UniProt Q9Z2V5)
# T1 construct: endogenous in cells; host or cells: mouse immortalized cell line 4935
# T1 sequence (Q9Z2V5 1-1149): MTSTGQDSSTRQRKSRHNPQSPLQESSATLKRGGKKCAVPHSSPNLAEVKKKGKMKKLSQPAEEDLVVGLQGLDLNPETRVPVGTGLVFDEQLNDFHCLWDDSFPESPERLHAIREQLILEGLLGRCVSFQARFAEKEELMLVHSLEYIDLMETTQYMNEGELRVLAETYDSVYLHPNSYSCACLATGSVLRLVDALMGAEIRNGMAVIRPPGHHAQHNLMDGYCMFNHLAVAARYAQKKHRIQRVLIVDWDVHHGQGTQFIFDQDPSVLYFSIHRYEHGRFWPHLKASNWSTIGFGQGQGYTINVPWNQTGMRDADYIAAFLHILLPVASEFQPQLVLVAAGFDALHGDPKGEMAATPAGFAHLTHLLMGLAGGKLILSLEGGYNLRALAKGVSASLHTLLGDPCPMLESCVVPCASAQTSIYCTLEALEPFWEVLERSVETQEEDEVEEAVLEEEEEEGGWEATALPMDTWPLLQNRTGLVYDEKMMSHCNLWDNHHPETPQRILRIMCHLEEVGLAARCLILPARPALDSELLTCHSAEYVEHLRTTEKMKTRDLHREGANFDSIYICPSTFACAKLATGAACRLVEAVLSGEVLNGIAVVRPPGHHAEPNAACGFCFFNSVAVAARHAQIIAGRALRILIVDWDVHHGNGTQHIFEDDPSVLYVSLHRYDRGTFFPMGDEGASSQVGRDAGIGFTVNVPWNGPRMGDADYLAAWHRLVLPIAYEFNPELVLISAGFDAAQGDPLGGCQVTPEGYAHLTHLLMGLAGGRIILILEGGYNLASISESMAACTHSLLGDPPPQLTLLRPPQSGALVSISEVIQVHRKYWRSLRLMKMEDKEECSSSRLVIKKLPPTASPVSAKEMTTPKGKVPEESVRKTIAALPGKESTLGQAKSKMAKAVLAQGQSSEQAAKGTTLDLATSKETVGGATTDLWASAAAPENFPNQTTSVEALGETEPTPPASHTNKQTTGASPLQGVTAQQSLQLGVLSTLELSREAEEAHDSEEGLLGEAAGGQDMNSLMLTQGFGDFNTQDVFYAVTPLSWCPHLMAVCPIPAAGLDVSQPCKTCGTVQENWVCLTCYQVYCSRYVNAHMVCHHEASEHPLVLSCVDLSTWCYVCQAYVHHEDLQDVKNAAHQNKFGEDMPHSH
# Assay: In-cell ELISA of HDAC6 in mice immortalized cell line 4935
# Assay type: cell-based
# Conditions: mice immortalized cell line 4935, in-cell ELISA
# Method: FIG. 19 is a dose-response curve for HDAC6 expression as a function of concentration for compounds 2 and 3j from Part 2 of the Example section.
# The degradation efficiency of HDAC6 induced by 2 and 3j in mice immortalized cell line 4935 was also tested using western blot and in-cell ELISA. In concentrations ranging from 10 nM to 10 μM, VHL-based degrader 3j induced more HDAC6 degradation and tubulin acetylation than CRBN-based degrader 2 (data not shown). […] The maximal degradation percentage for HDAC6 induced by 3j is 56.8%, which is better than 45.3% of Dmax induced by compound 2. […] The VHL E3 ligase-based degrader 3j may have advantages over CRBN-based degrader 2 in animal studies using mice as the model system.
smiles,measurement,setting,value
CCCCN(Cc1ccc(C(=O)NO)cc1)C(=O)Nc1ccc(OCCCCCn2cc(CNc3cccc4c3C(=O)N(C3CCC(=O)NC3=O)C4=O)nn2)cc1 (centres unmarked) [Compound 2],DC50,,~17 nM
same,Dmax,read-out: maximal degradation percentage for HDAC6 (Dmax),45.3%
